Earlier results as cited in patent US6660871B2, “Synthesis of 4H-chromene derivatives” (Thomas Jefferson Unversity, priority 2001, dated 2003).

System: tumor cells

SMILES: CCOC(=O)C1=C(N)Oc2ccc(Br)cc2C1C(C#N)C(=O)OCC (stereo not shown) [HA14-1]
- apoptosis of tumor cells: induces apoptosis of tumor cells
